System: TNF-α
Assay: TNF-α activity inhibiting assay (LPS-stimulated peripheral blood, ELISA)
Type: cell-based, human
Conditions: compound 20 μM, LPS 10 ng/mL, 6 hours, diluted peripheral blood of healthy volunteers
Method: Methods: Peripheral blood from healthy volunteers was collected with EDTA anticoagulant tubes. After being diluted 5-fold with 1640 medium (Gibco, USA), the blood was added to 96-well cell culture plates (Costar, USA) and then treated with 10 μL solution of the compound of general formula (I) of the present invention in DMSO (Sigma, USA), the final concentration of the compound was 20 μM with the final concentration of DMSO was 0.2%. After incubation for 60 minutes in an incubator at 37° C. under 5% CO2, 10 μL LPS (Sigma, USA) was added to the reaction system, and the final concentration was 10 ng/mL. After further culturing for 6 hours in the incubator at 37° C. under 5% CO2, the supernatant was collected. The content of TNF-α was determined by ELISA (BD Biosciences, USA). Absorbance was detected at OD450 nm with a microplate reader, with OD 650 nm as reference. The control, a solution containing 0.2% DMSO medium, was as 0% inhibition. Raw data and standard curves were recorded. The four-parameter drug inhibition curve was plotted by XL-fit software and the inhibition rate of each compound was calculated.

Structure (SMILES)	TNF-α inhibition rate (%)
O=C1c2cccc(O)c2C(=O)N1C1CC[C@@H]2[C@H]3CCCN4CCC[C@@H](CN2C1=O)[C@@H]34 (stereo partly drawn) [GJD 10]	≥50
O=C1c2cccc(F)c2C(=O)N1C1CC[C@@H]2[C@H]3CCC[N+]4([O-])CCC[C@@H](CN2C1=O)[C@@H]34 (stereo partly drawn) [GJD 65]	≥50
Cc1cccc2c1CN(C1CC[C@@H]3[C@H]4CCCN5CCC[C@@H](CN3C1=O)[C@@H]45)C2=O (stereo partly drawn) [GJD 38]	>50
O=C1c2cccc([N+](=O)[O-])c2C(=O)N1C1CC[C@@H]2[C@H]3CCC[N+]4([O-])CCC[C@@H](CN2C1=O)[C@@H]34 (stereo partly drawn) [GJD 66]	<50

System: Lovo cells
Assay: MTT tumor cell growth inhibition, Lovo
Type: cell-based
Conditions: 48 h, read-out: Tumors growth-inhibitory activity (IC50) Lovo
Method: (§1) Using MTT method to determine the growth inhibition activity of the matrine compounds on Lovo, MGC-803, Mia-paca2, HpeG-2, A549, k562, and Panc-1 cells in vitro. Logarithmic growth phase of Lovo, MGC-803, Mia-paca2, HpeG-2, A549, k562, Panc-1 cells were inoculated into 96-well plates (purchased from Institute of Biochemical Cells, Chinese Academy of Sciences, and cultured according to conventional tumor cell culture methods) at a density of 4×10^4/mL and 180 μL/well; after the cells adhered to the wall, 20 μL of drug solution was added to each well and matined the final drug concentrations were 0.1 μM, 1 μM, 10 μM, 50 μM, 100 μM respectively. After 48 h, 5 mg/mL MTT solution was added (20 μL/well) and maintained in a CO2 incubator for 3-4 h. After that, discarding the supernatant carefully, and DMSO was added (200 μL/well) when the residual liquid was air-dried, and shook for 0.5-1 h until the residual crystals was dissolved. The absorbance OD was measured at 492 nm by a microplate reader. GraphPad Prism 5 software was used to calculate the IC50 value.

IC50 [µM]	Structure (SMILES)
< 50	Cc1cccc2c1C(=O)N(C1=CC[C@@H]3[C@H]4CCCN5CCC[C@@H](CN3C1=O)[C@@H]45)C2=O [GJD 24]
< 50	O=C1c2cccc([N+](=O)[O-])c2C(=O)N1C1CC[C@@H]2[C@H]3CCC[N+]4([O-])CCC[C@@H](CN2C1=O)[C@@H]34 (stereo partly drawn) [GJD 66]

System: MGC-803 cells
Assay: MTT tumor cell growth inhibition, MGC-803
Type: cell-based
Conditions: 48 h, read-out: Tumors growth-inhibitory activity (IC50) MGC-803
Method: as §1

IC50 [µM]	Structure (SMILES)
50 to 100	Cc1cccc2c1C(=O)N(C1=CC[C@@H]3[C@H]4CCCN5CCC[C@@H](CN3C1=O)[C@@H]45)C2=O [GJD 24]
50 to 100	O=C1c2cccc([N+](=O)[O-])c2C(=O)N1C1CC[C@@H]2[C@H]3CCC[N+]4([O-])CCC[C@@H](CN2C1=O)[C@@H]34 (stereo partly drawn) [GJD 66]

System: Mia-paca2 cells
Assay: MTT tumor cell growth inhibition, Mia-paca2
Type: cell-based
Conditions: 48 h, read-out: Tumors growth-inhibitory activity (IC50) Mia-paca2
Method: as §1

IC50 [µM]	Structure (SMILES)
50 to 100	Cc1cccc2c1C(=O)N(C1=CC[C@@H]3[C@H]4CCCN5CCC[C@@H](CN3C1=O)[C@@H]45)C2=O [GJD 24]
50 to 100	O=C1c2cccc([N+](=O)[O-])c2C(=O)N1C1CC[C@@H]2[C@H]3CCC[N+]4([O-])CCC[C@@H](CN2C1=O)[C@@H]34 (stereo partly drawn) [GJD 66]

System: HpeG-2 cells
Assay: MTT tumor cell growth inhibition, HpeG-2
Type: cell-based
Conditions: 48 h, read-out: Tumors growth-inhibitory activity (IC50) HpeG-2
Method: as §1

IC50 [µM]	Structure (SMILES)
< 50	Cc1cccc2c1C(=O)N(C1=CC[C@@H]3[C@H]4CCCN5CCC[C@@H](CN3C1=O)[C@@H]45)C2=O [GJD 24]
< 50	O=C1c2cccc([N+](=O)[O-])c2C(=O)N1C1CC[C@@H]2[C@H]3CCC[N+]4([O-])CCC[C@@H](CN2C1=O)[C@@H]34 (stereo partly drawn) [GJD 66]

System: k562 cells
Assay: MTT tumor cell growth inhibition, k562
Type: cell-based
Conditions: 48 h, read-out: Tumors growth-inhibitory activity (IC50) k562
Method: as §1

IC50 [µM]	Structure (SMILES)
< 50	Cc1cccc2c1C(=O)N(C1=CC[C@@H]3[C@H]4CCCN5CCC[C@@H](CN3C1=O)[C@@H]45)C2=O [GJD 24]
< 50	O=C1c2cccc([N+](=O)[O-])c2C(=O)N1C1CC[C@@H]2[C@H]3CCC[N+]4([O-])CCC[C@@H](CN2C1=O)[C@@H]34 (stereo partly drawn) [GJD 66]

System: A549 cells
Assay: MTT tumor cell growth inhibition, A549
Type: cell-based
Conditions: 48 h, read-out: Tumors growth-inhibitory activity (IC50) A549
Method: as §1

IC50 [µM]	Structure (SMILES)
< 50	Cc1cccc2c1C(=O)N(C1=CC[C@@H]3[C@H]4CCCN5CCC[C@@H](CN3C1=O)[C@@H]45)C2=O [GJD 24]
< 50	O=C1c2cccc([N+](=O)[O-])c2C(=O)N1C1CC[C@@H]2[C@H]3CCC[N+]4([O-])CCC[C@@H](CN2C1=O)[C@@H]34 (stereo partly drawn) [GJD 66]

System: Panc-1 cells
Assay: MTT tumor cell growth inhibition, Panc-1
Type: cell-based
Conditions: 48 h, read-out: Tumors growth-inhibitory activity (IC50) Panc-1
Method: as §1

IC50 [µM]	Structure (SMILES)
50 to 100	Cc1cccc2c1C(=O)N(C1=CC[C@@H]3[C@H]4CCCN5CCC[C@@H](CN3C1=O)[C@@H]45)C2=O [GJD 24]
< 50	O=C1c2cccc([N+](=O)[O-])c2C(=O)N1C1CC[C@@H]2[C@H]3CCC[N+]4([O-])CCC[C@@H](CN2C1=O)[C@@H]34 (stereo partly drawn) [GJD 66]

Source: US20210221812A1, “MATRINE a-KETOAMINE COMPOUNDS, PREPARATION METHOD THEREFOR AND USE THEREOF” (SHANGHAI XINGYE PHARMACEUTICAL TECHNOLOGY CO., LTD, priority 2018, published 2021)
